The target of test [1] is T1, mPGES-1 (Homo sapiens, UniProt O14684).
T1 sequence (O14684 1-152): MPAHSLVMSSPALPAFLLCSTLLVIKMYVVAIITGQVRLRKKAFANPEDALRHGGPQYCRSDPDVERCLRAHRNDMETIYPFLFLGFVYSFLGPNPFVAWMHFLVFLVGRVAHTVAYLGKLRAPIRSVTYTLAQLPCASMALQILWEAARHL
The following applies: background, cited from earlier work.

Test [2] deals with T1, mPGES-1. Put plainly: mPGES-1 enzyme activity assay (PGE2 enzyme immunoassay), human enzyme. It is filed as biochemical. The arrangement: made in house; host or cells: FreeStyle 293-F cells, crude microsomal preparation. The following applies: recombinant microsomal enzyme; means ± SD, triplicate; read-out: IC50 against mPGES-1, Human enzyme. The method, boiled down: (§1)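 Read-out: PGE2 by enzyme immunoassay, minus non-enzymatic PGH2 conversion in enzyme-free buffer, with IC50 calculated. Reactions ran 30 s on 1 μM PGH2 (stopped with SnCl2), after compound had been preincubated 15 min at room temperature with 293-F-expressed microsomal enzyme in pH 7.2 phosphate with GSH.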

Test [3] has as its target T2, mPGES-1 Mouse enzyme (Mus musculus, UniProt Q9JM51).
T2 construct: made in house; host or cells: FreeStyle 293-F cells, crude microsomal preparation
T2 sequence (Q9JM51 1-153): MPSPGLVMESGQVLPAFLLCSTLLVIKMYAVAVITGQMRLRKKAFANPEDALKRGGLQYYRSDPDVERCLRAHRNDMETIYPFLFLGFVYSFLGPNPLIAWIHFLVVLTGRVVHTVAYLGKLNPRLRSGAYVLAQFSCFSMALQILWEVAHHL
Put plainly: mPGES-1 enzyme activity assay (PGE2 enzyme immunoassay), mouse enzyme. The format is biochemical. The following applies: compound at a concentration of 10 μM; read-out: % inhibition of the compound against mPGES-1, Mouse enzyme. The method, boiled down: as §1

SMILES strings stand for the structures. Like-named read-outs stand apart in the source and are kept apart here.

By IC50 is commonly meant the concentration at which inhibition is half-maximal. Broadly, the inhibition is the change of the read-out against control, counted positive when it falls.

Turning to `CSc1ccc(/C=C2/C(C)=C(CC(=O)O)c3cc(F)ccc32)cc1`, in test [1] (literature refs 20-22, read-out: IC50 for inhibition of mPGES-1), the IC50 is 80 µM.

Take `CCCCC/C=C\C\C=C/C=C/C=C/[C@@H](SC[C@H](NC(=O)CC[C@H](N)C(=O)O)C(=O)NCC(=O)O)[C@@H](O)CCCC(=O)O` [Leukotriene C4]: the “IC50 for inhibition of mPGES-1 (in words)” value in test [1] (literature ref 20, probably competing with glutathione) is “micromolar”.

In the case of `CCCCOc1ccc(-c2nn(-c3ccc(Cl)cc3)cc2/C=C(/C#N)C(=O)O)cc1` [VII-14], in test [2], the IC50 worked out at 190 ± 68 nM. Besides, in test [3], the inhibition at 10 µM came to 30%.

In the case of `CCCCCCOc1ccc(-c2nn(-c3ccc(Cl)cc3)cc2/C=C(/C#N)C(=O)O)cc1` [VII-15], the IC50 in test [2] was found to be 83 ± 30 nM. In addition, the inhibition at 10 µM in test [3] turned out to be 48%.

Consider `CCCCCCCCOc1ccc(-c2nn(-c3ccccc3)cc2/C=C(/C#N)C(=O)O)cc1` [VII-16], for which, in test [2], the half-inhibitory concentration (IC50) came out at 209 ± 42 nM. Further, the inhibition at 10 µM in test [3] turned out to be 46%.

Regarding `CCCCCCCCOc1ccc(-c2nn(-c3ccc(Cl)cc3)cc2/C=C(/C#N)C(=O)O)cc1` [VII-17], in test [2], the IC50 was 90 ± 15 nM. Besides, the inhibition at 10 µM in test [3] was determined as 29%.

With `CCCCCCCCCCOc1ccc(-c2nn(-c3ccccc3)cc2/C=C(/C#N)C(=O)O)cc1` [VII-18], in test [2], the IC50 came to 197 ± 32 nM. Also, the inhibition at 10 µM in test [3] is 4.3%.

As for `CCCCCCCCCCOc1ccc(-c2nn(-c3ccc(Cl)cc3)cc2/C=C(/C#N)C(=O)O)cc1` [VII-19], in test [2], the IC50 was 97 ± 15 nM. For the same compound, the inhibition at 10 µM in test [3] stood at 4.6%.

On to `N#C/C(=C/c1cn(-c2ccccc2)nc1-c1ccc(OCc2ccccc2)cc1)C(=O)O` [VII-20], for which, in test [2], the IC50 is 806 ± 162 nM. Moreover, the inhibition at 10 µM in test [3] is 16%.

The values are drawn from patent publication US12030877B2, “Prostaglandin E synthase inhibitors and methods for utilizing the same” (University of Kentucky Research Foundation, priority 2016, dated 2024).
